According to ChEMBL document CHEMBL4495565, “Cytopathic SARS-Cov2 screening on VERO-E6 cells in a large repurposing effort” (2020):
Values joined by “and” are separate entries in the source; they are usually repeats but may differ in a detail not shown here. Equal entries are not always repeated. Structures can show the parent of a compound that is named as a salt. Square brackets hold non-standard residues; d marks the D form. Peptide text beside a SMILES is read from it. * marks the point of attachment. dPhe(4-NHCONH2) = NC(=O)Nc1ccc(C[C@@H](N)C(=O)O)cc1; Dihydroorotyl(S) = O=C1C[C@@H](C(=O)*)NC(=O)N1; dPhe(4-Cl) = N[C@H](Cc1ccc(Cl)cc1)C(=O)O; Phe(4-NH2) = Nc1ccc(C[C@H](N)C(=O)O)cc1; d2Nal = N[C@H](Cc1ccc2ccccc2c1)C(=O)O; Lys(iPr) = CC(C)NCCCC[C@H](N)C(=O)O; d3Pal = N[C@H](Cc1cccnc1)C(=O)O

Legend:
SARS-CoV-2 = test: microbe, parasite or virus in culture; type: functional, organism-based, Chlorocebus sabaeus, Vero C1008
in vitro = conditions: chlorocebus sabaeus
[1] = Severe acute respiratory syndrome coronavirus 2, Vero C1008, 48 h
[2] = VERO-E6 cells (Vero C1008), uninfected, CC50

| SMILES | CC50 at 48 h (in vitro; [2]) [µM] | other results |
| --- | --- | --- |
| COC(=O)c1ccccc1-c1c2ccc(=N)cc-2oc2cc(N)ccc12 [RHODAMINE123] | > 33 | IC50 (SARS-CoV-2; [1]): 0.8 µM |
| CC(C)(O)CNc1ncc(-c2ccnc(Nc3ccnc(Cl)c3)n2)c(CC2CC2)n1 | 26.8 |  |
| C/C(=C\c1ccc(C(=O)O)cc1)c1ccc2c(c1)C(C)(C)CCC2(C)C | 4.07 | IC50 (SARS-CoV-2; [1]): > 33 µM |
| CN1CCN(CC/C=C2\c3ccccc3Sc3ccc(S(=O)(=O)N(C)C)cc32)CC1 | > 33 |  |
| CCc1c(-c2ccc3[nH]ncc3c2)cnc(N)c1-c1ccc(O)cc1 | > 33 | IC50 (SARS-CoV-2; [1]): > 33 µM |
| COc1cc(/C=C2\SC(=O)NC2=O)ccc1Oc1ccc(C#N)cc1C(F)(F)F | 3.33 | IC50 (SARS-CoV-2; [1]): > 33 µM |
| Cn1c(Nc2ccc(C(F)(F)F)cc2)nc2cc(Oc3ccnc(-c4ncc(C(F)(F)F)[nH]4)c3)ccc21 [RAF-265] | 9.19 |  |
| Cc1cc(C)c2c(c1)[C@@H](N(Cc1cc(C(F)(F)F)cc(C(F)(F)F)c1)c1nnn(C)n1)CCCN2C[C@H]1CC[C@H](C(=O)O)CC1 [EVACETRAPIB] | > 33 | IC50 (SARS-CoV-2; [1]): > 33 µM |
| CC(C)N1CCN(c2ccc(C(=O)c3c(-c4ccc(O)cc4)sc4cc(O)ccc34)cc2)CC1 | > 33 |  |
| Cc1ccc(NC(=O)c2ccc(CN3CCN(C)CC3)cc2)cc1Nc1nc(-c2cccnc2)cs1 [MASITINIB] | > 33 |  |
| O=C(O)Cc1cccc(OCCCN(Cc2cccc(C(F)(F)F)c2Cl)CC(c2ccccc2)c2ccccc2)c1 | > 33 |  |
| Nc1ccc(C(=O)Nc2cccc(-c3nc(N4CCOCC4)c4oc5ncccc5c4n3)c2)cn1 | 0.01 |  |
| COc1cc(NCc2ccc3nc(N)nc(N)c3c2C)cc(OC)c1OC [TRIMETREXATE] | 1.99 |  |
| CN1CCN(C2CCN(C(=O)Nc3cc(Oc4ccc(NC(=O)C5(C(=O)Nc6ccc(F)cc6)CC5)c(F)c4)ccn3)CC2)CC1 [GOLVATINIB] | > 33 | IC50 (SARS-CoV-2; [1]): 5.89 µM |
| CCCCn1c(NC(=O)c2cccs2)c(C#N)c2nc3ccccc3nc21 |  | IC50 (SARS-CoV-2; [1]): 19.7 µM |
| COc1cc2ncnc(Nc3cccc(Br)c3)c2cc1OC | 13.2 |  |
| Oc1c(Cl)cc(Cl)cc1Sc1cc(Cl)cc(Cl)c1O [BITHIONOL] | 9.94 |  |
| O=C1C(=Cc2cccnc2)C(=O)c2ccccc21 |  | IC50 (SARS-CoV-2; [1]): > 33 µM |
| CC(=O)N[C@H](Cc1ccc2ccccc2c1)C(=O)N[C@H](Cc1ccc(Cl)cc1)C(=O)N[C@H](Cc1cccnc1)C(=O)N[C@@H](CO)C(=O)N[C@@H](Cc1ccc(NC(=O)[C@@H]2CC(=O)NC(=O)N2)cc1)C(=O)N[C@H](Cc1ccc(NC(N)=O)cc1)C(=O)N[C@@H](CC(C)C)C(=O)N[C@@H](CCCCNC(C)C)C(=O)N1CCC[C@H]1C(=O)N[C@H](C)C(N)=O [DEGARELIX] (Ac-[d2Nal][dPhe(4-Cl)][d3Pal]S[Phe(4-NH2)](Dihydroorotyl(S))[dPhe(4-NHCONH2)]L[Lys(iPr)]P[dA]-NH2) | > 33 | IC50 (SARS-CoV-2; [1]): 20.7 µM |
| C[C@H]1CCC/C=C/[C@@H]2C[C@H](O)C[C@H]2[C@H](O)/C=C/C(=O)O1 [BREFELDIN A] | 0.06 |  |
| CCN(CC)CCOc1ccc(C(=C(Cl)c2ccccc2)c2ccccc2)cc1 [CLOMIPHENE CITRATE] |  | CC50 at 48 h (in vitro; vero c1008, CC50): > 33 µM |
| Cc1cc(O[C@@H](CCC(F)(F)F)c2ccc(C(=O)NCCC(=O)O)cc2)cc(C)c1-c1ccc(C(C)(C)C)cc1 [ADOMEGLIVANT] | > 33 |  |
| CN1CCN(CCCN2c3ccccc3Sc3ccc(C(F)(F)F)cc32)CC1 [TRIFLUOPERAZINE HYDROCHLORIDE] | > 33 |  |

| SMILES | CC50 at 48 h (in vitro; [2]) [µM] | other results |
| --- | --- | --- |
| c1cncc(CN2CCC(n3ncc4c(N5CCOCC5)nc(-c5ccc6[nH]ccc6c5)nc43)CC2)c1 | 9.55 |  |
| Nc1nc2c(ncn2[C@@H]2O[C@H](CO)[C@@H](O)[C@H]2O)c(=S)[nH]1 [THIOGUANOSINE] | > 33 |  |
| N#Cc1cccc(C#N)c1-c1nc2c3ccc(Cl)cc3c3ccccc3c2[nH]1 | > 33 |  |
| Cn1cc(-c2ccncc2)c(-c2ccc(OCc3ccc4ccccc4n3)cc2)n1 [MARDEPODECT] | > 33 |  |
| O=S(=O)(NCC1CC1)c1ccc(Nc2nccc(N3CCCc4cc(O)ccc43)n2)cc1 | 0.74 |  |
| Cc1ccc(C(=O)Nc2cccc(C(F)(F)F)c2)cc1Nc1nc(-c2cccnc2)nc2c1cnn2C | 0.07 |  |
| COc1ccc2cc1Oc1ccc(cc1)C[C@H]1c3cc(c(OC)cc3CCN1C)Oc1c(OC)c(OC)cc3c1[C@H](C2)N(C)CC3 [FANCHININ] | > 33 |  |
| O=C(CCCN1CCC2(CC1)C(=O)N(Cc1cccc(F)c1)CN2c1ccccc1)c1ccc(F)cc1 | 27.4 |  |
| CC(C)(C)NCc1ccc(Nc2ccnc3cc(Cl)ccc23)cc1O [GSK-369796] | 12.4 |  |
| C#CCC(Cc1cnc2nc(N)nc(N)c2n1)c1ccc(C(=O)N[C@@H](CCC(=O)O)C(=O)O)cc1 (some centres undefined) [PRALATREXATE] |  | IC50 (SARS-CoV-2; [1]): 0.06 µM |
| COc1ccccc1[C@H](Cn1c(=O)n(C(C)(C)C(=O)O)c(=O)c2c(C)c(-c3ncco3)sc21)OC1CCOCC1 [FIRSOCOSTAT] | 0.11 |  |
| Nc1ncc(-c2ccnc(Nc3ccncc3)n2)c(CC2CC2)n1 | 2.11 |  |
| CC(C)COCC(CN(Cc1ccccc1)c1ccccc1)N1CCCC1 (centres undefined) | 23.4 |  |
| C[C@@H]1C[C@@H]([C@H](O)CC2CC(=O)NC(=O)C2)C(=O)[C@@H](C)C1 [CYCLOHEXIMIDE] | 10.2 |  |
| Cc1[nH]c(/C=C2\C(=O)Nc3ccc(S(=O)(=O)Cc4c(Cl)cccc4Cl)cc32)c(C)c1C(=O)N1CCC[C@@H]1CN1CCCC1 [PHA-665752] | > 33 |  |
| CCCCN(CCCC)CCC(O)c1cc2c(Cl)cc(Cl)cc2c2cc(C(F)(F)F)ccc12 (centres undefined) [HALOFANTRINE] | > 33 |  |
| O=[N+]([O-])c1ccc(NN=Cc2sc(N3CCOCC3)nc2-c2ccccc2)c(S(=O)(=O)Nc2ccccc2Cl)c1 | 0.43 |  |
| Cc1c(O)cccc1C(=O)N[C@@H](CSc1ccccc1)[C@H](O)CN1C[C@H]2CCCC[C@H]2C[C@H]1C(=O)NC(C)(C)C [NELFINAVIR MESYLATE] | > 33 |  |
| Nc1nc(N)c2nc(CNc3ccc(C(=O)N[C@@H](CCC(=O)O)C(=O)O)cc3)cnc2n1 [AMINOPTERIN] | 0.03 |  |
| CCN(CC)CCO[C@H]1CC[C@@]2(C)C(=CC[C@@H]3[C@@H]2CC[C@]2(C)C(=O)CC[C@@H]32)C1 | 3.43 |  |
| CC(C)(Sc1cc(C(C)(C)C)c(O)c(C(C)(C)C)c1)Sc1cc(C(C)(C)C)c(OC(=O)CCC(=O)O)c(C(C)(C)C)c1 [SUCCINOBUCOL] | 10.2 |  |
| CCN1CCC(n2cc(CNc3cc(Cl)c4ncc(C#N)c(Nc5ccc(F)c(Cl)c5)c4c3)nn2)CC1 |  | IC50 (SARS-CoV-2; [1]): 16.6 µM |
| CN(C)C(=O)C(CCN1CCC(O)(c2ccc(Cl)cc2)CC1)(c1ccccc1)c1ccccc1 [LOPERAMIDE] | > 33 |  |

| SMILES | CC50 at 48 h (in vitro; [2]) [µM] | other results |
| --- | --- | --- |
| Nc1ccc2cc3ccc(N)cc3nc2c1 [PROFLAVINE] | 2.67 |  |
| O=C1Nc2cc(Br)ccc2/C1=C1/Nc2ccccc2/C1=N\O [6BIO] | > 33 |  |
| O=C(Nc1ccc(Cl)cc1)Nc1ccc(Cl)c(Cl)c1 [TRICLOCARBAN] | 3.08 |  |
| Nc1nc(NC[C@H]2CC[C@H](CNS(=O)(=O)c3cccc4ccccc34)CC2)nc2ccccc12 [CGP-71683A] | 4.38 |  |
| Cc1nc(N)nc(N)c1-c1ccc(Cl)c(Cl)c1 [METOPRINE] | 0.12 |  |
| COc1cc2c(N3CCN(C(=O)Nc4ccc(OC(C)C)cc4)CC3)ncnc2cc1OCCCN1CCCCC1 [TANDUTINIB] | > 33 |  |
| CC(C)C(=O)OCC(=O)[C@@]12O[C@H](C3CCCCC3)O[C@@H]1C[C@H]1[C@@H]3CCC4=CC(=O)C=C[C@]4(C)[C@H]3[C@@H](O)C[C@@]12C [CICLESONIDE] |  | IC50 (SARS-CoV-2; [1]): > 33 µM |
| COc1c(C)c2c(c(O)c1C/C=C(\C)CCC(=O)O)C(=O)OC2 [MYCOPHENOLIC ACID] |  | IC50 (SARS-CoV-2; vero c1008): 3.43 µM and 11.1 µM and > 33 µM |
| CC(C)c1cnn2c(NCc3ccccc3)cc(NCCCCCCN)nc12 | > 33 |  |
| CCN(CC)CCOc1ccc2c(c1)C(=O)c1cc(OCCN(CC)CC)ccc1-2 [TILORONE] | 3.08 |  |
| CC[C@@]1([C@H]2O[C@H]([C@H]3O[C@@](O)(CO)[C@H](C)C[C@@H]3C)C[C@H]2C)CC[C@H]([C@@]2(C)CC[C@]3(C[C@H](O)[C@@H](C)[C@@H]([C@H](C)[C@H](OC)[C@@H](C)C(=O)O)O3)O2)O1 [MONENSIN SODIUM] |  | IC50 (SARS-CoV-2; [1]): 3.18 µM |
| O=C(Nc1ccc(Cl)c(Cl)c1)Nc1ccc(Cl)c(Cl)c1 | > 33 |  |
| Nc1ncnc2c1ncn2[C@@H]1CC[C@@H](O)[C@H]1O | 15.7 |  |
| O=C(NCCN1CCC2(CC1)C(=O)NCN2c1cccc(F)c1)c1ccc2ccccc2c1 | > 33 |  |
| CC1(N2CCC(n3c([C@@H]4CCCNC4)nc4ccccc43)CC2)CCCCCCC1 | > 33 |  |
| Cc1cccc(Nc2nc(-c3ccncc3)cs2)c1 | 31.5 |  |
| Cn1nc(C(C)(C)C)cc1C(=O)N[C@@H](Cc1cccc(Cl)c1)C(=O)NCC#N | 0.03 |  |
| COc1ccc2c(c1)[C@]1(C[C@H]1c1ccc3c(/C=C/c4ccc(CN5C[C@@H](C)O[C@@H](C)C5)cc4)n[nH]c3c1)C(=O)N2 [OCIFISERTIB] | > 33 |  |
| OCCNC1CCCc2c1[nH]c1ccc(-c3ccccc3)cc21 (centres undefined) | > 33 |  |
| COc1cc2c(NC3CCN(C(C)C)CC3)nc(N3CCC(F)(F)CC3)nc2cc1OCCCN1CCCC1 | > 33 |  |
| N=C(Nc1ccc(I)cc1)NC1C2CC3CC(C2)CC1C3 (centres undefined) | > 33 |  |
